Experimental data from patent US8097590B2, “α-MSH-antagonist dipeptide conjugates” (Centre National de la Recherche Scientifique (CNRS), priority 2004, dated 2012).
Like-named read-outs stand apart in the source and are kept apart here. Non-standard residues stand in square brackets, D forms with d. Residues, ends and D or L forms follow the SMILES beside them. No end group written: not given here. *: point of attachment. Palmitoyl = CCCCCCCCCCCCCCCC(=O)*

Experiments:
[1] = target: T1, human MC1 receptor (Homo sapiens, UniProt Q01726); test: Inhibition of AMPc production induced by α-MSH on M4Be cells; assay type: cell-based; conditions: M4Be human cell line, 5×10^−8 M α-MSH
T1 construct: endogenous in cells; host or cells: M4Be human melanoma (melanocyte) cell line
Method: Five Palm-dipeptides according to this invention were introduced at different concentrations and each measurement was made in triplicate. Two or three series of experiments were made.
The M4Be human cell line (Jacubovich et al. Cancer Immunol. Immunother. 1979, 7, 59-64), a melanocytes cell line capable of producing melanines, was used in this study to determine the values of CI50.
The cells were maintained in the Dulbecco modified Eagle medium with 10% of foetal calf serum (FCS), 1 mM of glutamine, 100 U/ml of penicillin and 10^−4 g/ml of streptomycine.
All cell lines were maintained at 37° C. in an atmosphere with 5% of CO2 and cell culture media were renewed every two days. The cells were applied in contact with a plate with 96 wells (Nunc, Roskilde) 24 hours before contact of dipeptides according to the invention.
Cells applied in contact the day before with 8×10^4 cells per well were put in the presence of one of the five dipeptide conjugates according to the invention at various concentrations for 10 minutes at 37° C. with 5×10^−8 M of α-MSH. After this time, the lysis of the cells was made and the AMPc content was measured using a connection test box by competition (RPN225, Amersham Pharmacia Biotech). Each independent experiment was carried out at least twice in triplicate.
The peptidic activity was determined with reference to the AMPc content synthesized by untreated cells and the production of AMPc induced by α-MSH alone. The curves were adjusted and the values of CI50 were determined with non-linear regression in the GraphPad Prism (GraphPad software, San Diego, Calif., United States).

[2] = target: receptor MC1; conditions: Jayawickreme et al., J. Biol. Chem. 1994; cited from earlier work
[3] = test system: receptor MC1; conditions: Proc. Natl. Acad. Sci. (1995), 92, result in words; cited from earlier work
[4] = 10 minutes at 37° C., experiment 1, read-out: CI50 (μM) exp1
[5] = 10 minutes at 37° C., experiment 2, read-out: CI50 (μM) exp2
[6] = 10 minutes at 37° C., experiment 3, read-out: CI50 (μM) exp3
[7] = average of the experiments, read-out: CI50 (μM) aver.

T1 sequence (Q01726 whole entry): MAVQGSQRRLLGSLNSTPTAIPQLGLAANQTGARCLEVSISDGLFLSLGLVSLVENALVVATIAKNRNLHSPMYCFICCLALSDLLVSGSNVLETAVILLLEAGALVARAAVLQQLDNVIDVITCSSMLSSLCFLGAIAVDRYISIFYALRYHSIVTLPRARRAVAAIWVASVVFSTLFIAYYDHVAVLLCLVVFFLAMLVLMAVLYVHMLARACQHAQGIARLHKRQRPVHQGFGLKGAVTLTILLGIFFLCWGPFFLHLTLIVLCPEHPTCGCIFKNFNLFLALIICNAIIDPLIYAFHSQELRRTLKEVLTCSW

IC50 [1, 4] [µM] | IC50 [1, 5] [µM] | IC50 [1, 6] [µM] | IC50 [1, 7] [µM] | Molecule | Ki [2] [µM] | antagonist activity [3]
29 | 4.6 | 4.4 | 13 | CCCCCCCCCCCCCCCC(=O)N[C@@H](CCCNC(=N)N)C(=O)N[C@@H](Cc1c[nH]cn1)C(N)=O [Compound 39, Palm-Arg-His-NH2] (Palmitoyl-Arg-His-NH2) | – | –
20 | 26 | – | 23 | CCCCCCCCCCCCCCCC(=O)N[C@@H](CCCNC(=N)N)C(=O)N1CCC[C@H]1C(N)=O [Compound 49, Palm-Arg-Pro-NH2] (Palmitoyl-Arg-Pro-NH2) | – | –
45 | 5.5 | 1 | 17 | CCCCCCCCCCCCCCCC(=O)N[C@@H](CO)C(=O)N1CCC[C@H]1C(N)=O [Compound 125, Palm-Ser-Pro-NH2] (Palmitoyl-Ser-Pro-NH2) | – | –
48 | 9.6 | – | 29 | CCCCCCCCCCCCCCCC(=O)N[C@@H](CCCNC(=N)N)C(=O)N[C@@H](CCCCN)C(N)=O [Compound 50, Palm-Arg-Lys-NH2] (Palmitoyl-Arg-Lys-NH2) | – | –
– | – | – | – | H-MP[dF]R[dW]FKPV-NH2 [153 N-6] | 0.011 | –
36 | 17 | – | 26 | CCCCCCCCCCCCCCCC(=O)N[C@@H](CCCNC(=N)N)C(=O)N[C@@H](CCCNC(=N)N)C(N)=O [Compound 41, Palm-Arg-Arg-NH2] (Palmitoyl-Arg-Arg-NH2) | – | –
– | – | – | – | [dW]-Arg-Leu-NH2 | – | has an antagonist activity
